Data on 3 molecules can be found in ChEMBL document CHEMBL3046559, “Sterile oat (Avena sterilis L.) cross-resistance profile to ACCase-inhibiting herbicides in Greece” (2012).

The first assay has as its system Avena sterilis. The experiment in a line: Resistance index, ratio of GR50 for Avena sterilis accession P02 to GR50 for Avena sterilis accession P10S. Type of assay: functional.
As to `CCO/N=C(\CC)C1=C(O)CC(c2c(C)cc(C)cc2C)CC1=O` (centres undefined) [TRALKOXYDIM], the Ratio was 38.

The test system of the next assay is Avena sterilis. In words: Resistance index, ratio of GR50 for Avena sterilis accession P06S to GR50 for Avena sterilis accession P10S. The class given is functional.
For `CCc1cc(C)cc(CC)c1-c1c(OC(=O)C(C)(C)C)n2n(c1=O)CCOCC2` [PINOXADEN], the Ratio was determined as 0.9.
The same measure, in the same setting: to `CCO/N=C(\CC)C1=C(O)CC(c2c(C)cc(C)cc2C)CC1=O` (centres undefined) [TRALKOXYDIM] belongs 1.

A further assay relates to Avena sterilis. The experiment in a line: Resistance index, ratio of GR50 for Avena sterilis accession P20 to GR50 for Avena sterilis accession P10S. The class given is functional.
Take `CCc1cc(C)cc(CC)c1-c1c(OC(=O)C(C)(C)C)n2n(c1=O)CCOCC2` [PINOXADEN]: the Ratio was 10.
Take `CCO/N=C(\CC)C1=C(O)CC(c2c(C)cc(C)cc2C)CC1=O` (centres undefined) [TRALKOXYDIM]: the Ratio is recorded as 102.

Another assay concerns Avena sterilis. The experiment in a line: Resistance index, ratio of GR50 for Avena sterilis accession P09 to GR50 for Avena sterilis accession P10S. The class given is functional.
`CCO/N=C(\CC)C1=C(O)CC(c2c(C)cc(C)cc2C)CC1=O` (centres undefined) [TRALKOXYDIM]: the Ratio is on record as 19.

The test system of a further assay is Avena sterilis. In words: Resistance index, ratio of GR50 for Avena sterilis accession P13S to GR50 for Avena sterilis accession P10S. Type of assay: functional.
As to `CCc1cc(C)cc(CC)c1-c1c(OC(=O)C(C)(C)C)n2n(c1=O)CCOCC2` [PINOXADEN], the Ratio was determined as 1.
Same read-out and setting: then `CCO/N=C(\CC)C1=C(O)CC(c2c(C)cc(C)cc2C)CC1=O` (centres undefined) [TRALKOXYDIM], with 1.

A further assay relates to Avena sterilis. In words: Resistance index, ratio of GR50 for Avena sterilis accession P19S to GR50 for Avena sterilis accession P10S. The class given is functional.
Turning to `CCc1cc(C)cc(CC)c1-c1c(OC(=O)C(C)(C)C)n2n(c1=O)CCOCC2` [PINOXADEN], the Ratio turned out to be 1.6.
On the same count and under the same terms, to `CCO/N=C(\CC)C1=C(O)CC(c2c(C)cc(C)cc2C)CC1=O` (centres undefined) [TRALKOXYDIM] belongs 0.4.

For a further assay, the system named is Avena sterilis. The experiment in a line: Resistance index, ratio of GR50 for Avena sterilis accession P17 to GR50 for Avena sterilis accession P10S. The class given is functional.
Consider `CCO/N=C(\CC)C1=C(O)CC(c2c(C)cc(C)cc2C)CC1=O` (centres undefined) [TRALKOXYDIM], for which the Ratio was found to be 14.

The test system of another assay is Avena sterilis. In words: Herbicidal activity against Avena sterilis accession P14 assessed as weed survival at 8 times field recommended herbicide dose. The class given is functional.
On to `COCc1cnc(C2=NC(C)(C(C)C)C(=O)N2)c(C(=O)O)c1` (centres undefined) [IMAZAMOX], for which the Survival is 0%.
Still for that read-out and setting: then `CCc1cc(C)cc(CC)c1-c1c(OC(=O)C(C)(C)C)n2n(c1=O)CCOCC2` [PINOXADEN], with 0%; and `CCO/N=C(\CC)C1=C(O)CC(c2c(C)cc(C)cc2C)CC1=O` (centres undefined) [TRALKOXYDIM], with 0%.

In another assay the test system is Avena sterilis. The experiment in a line: Herbicidal activity against Avena sterilis accession P14 assessed as weed survival at 16 times field recommended herbicide dose. Type of assay: functional.
On to `COCc1cnc(C2=NC(C)(C(C)C)C(=O)N2)c(C(=O)O)c1` (centres undefined) [IMAZAMOX], for which the Survival amounted to 0%.
On the same count and under the same terms, then `CCc1cc(C)cc(CC)c1-c1c(OC(=O)C(C)(C)C)n2n(c1=O)CCOCC2` [PINOXADEN], with 0%.
The same measure, in the same setting: to `CCO/N=C(\CC)C1=C(O)CC(c2c(C)cc(C)cc2C)CC1=O` (centres undefined) [TRALKOXYDIM] belongs 0%.

In another assay the test system is Avena sterilis. The experiment in a line: Herbicidal activity against Avena sterilis accession P21S assessed as induction of weed mortality. The class given is functional.
Regarding `COCc1cnc(C2=NC(C)(C(C)C)C(=O)N2)c(C(=O)O)c1` (centres undefined) [IMAZAMOX], the GR50 was determined as 14 gAi/ha.
On the same count and under the same terms, then `CCc1cc(C)cc(CC)c1-c1c(OC(=O)C(C)(C)C)n2n(c1=O)CCOCC2` [PINOXADEN], with 5.8 gAi/ha; and `CCO/N=C(\CC)C1=C(O)CC(c2c(C)cc(C)cc2C)CC1=O` (centres undefined) [TRALKOXYDIM], with 84 gAi/ha.

Another assay relates to Avena sterilis. In words: Resistance index, ratio of GR50 for Avena sterilis accession P16 to GR50 for Avena sterilis accession P10S. The class given is functional.
On to `CCO/N=C(\CC)C1=C(O)CC(c2c(C)cc(C)cc2C)CC1=O` (centres undefined) [TRALKOXYDIM], for which the Ratio is 32.

The test system of a further assay is Avena sterilis. In words: Resistance index, ratio of GR50 for Avena sterilis accession P15 to GR50 for Avena sterilis accession P10S. The class given is functional.
Take `CCO/N=C(\CC)C1=C(O)CC(c2c(C)cc(C)cc2C)CC1=O` (centres undefined) [TRALKOXYDIM]: the Ratio was found to be 26.

The subject of a further assay is Avena sterilis. The experiment in a line: Herbicidal activity against Avena sterilis accession P13S assessed as weed survival at 1/16 times field recommended herbicide dose. The class given is functional.
On to `COCc1cnc(C2=NC(C)(C(C)C)C(=O)N2)c(C(=O)O)c1` (centres undefined) [IMAZAMOX], for which the Survival is recorded as 80%.
Still for that read-out and setting: to `CCc1cc(C)cc(CC)c1-c1c(OC(=O)C(C)(C)C)n2n(c1=O)CCOCC2` [PINOXADEN] belongs 97%; to `CCO/N=C(\CC)C1=C(O)CC(c2c(C)cc(C)cc2C)CC1=O` (centres undefined) [TRALKOXYDIM], 67%.

For the next assay, the system named is Avena sterilis. In words: Resistance index, ratio of GR50 for Avena sterilis accession P22 to GR50 for Avena sterilis accession P10S. Type of assay: functional.
Take `CCO/N=C(\CC)C1=C(O)CC(c2c(C)cc(C)cc2C)CC1=O` (centres undefined) [TRALKOXYDIM]: the Ratio amounted to 15.

The subject of another assay is Avena sterilis. In words: Resistance index, ratio of GR50 for Avena sterilis accession P04 to GR50 for Avena sterilis accession P10S. Type of assay: functional.
On to `CCc1cc(C)cc(CC)c1-c1c(OC(=O)C(C)(C)C)n2n(c1=O)CCOCC2` [PINOXADEN], for which the Ratio is on record as 18.
Turning to `CCO/N=C(\CC)C1=C(O)CC(c2c(C)cc(C)cc2C)CC1=O` (centres undefined) [TRALKOXYDIM], the Ratio is on record as 266.

The subject of the next assay is Avena sterilis. The experiment in a line: Resistance index, ratio of GR50 for Avena sterilis accession P03 to GR50 for Avena sterilis accession P10S. Type of assay: functional.
In the case of `CCO/N=C(\CC)C1=C(O)CC(c2c(C)cc(C)cc2C)CC1=O` (centres undefined) [TRALKOXYDIM], the Ratio was 55.

The test system of the next assay is Avena sterilis. The experiment in a line: Resistance index, ratio of GR50 for Avena sterilis accession P21S to GR50 for Avena sterilis accession P10S. The class given is functional.
As for `CCc1cc(C)cc(CC)c1-c1c(OC(=O)C(C)(C)C)n2n(c1=O)CCOCC2` [PINOXADEN], the Ratio was 1.4.
Still for that read-out and setting: then `CCO/N=C(\CC)C1=C(O)CC(c2c(C)cc(C)cc2C)CC1=O` (centres undefined) [TRALKOXYDIM], with 3.

A further assay concerns Avena sterilis. The experiment in a line: Herbicidal activity against Avena sterilis accession P17 assessed as weed survival at 32 times field recommended herbicide dose. Type of assay: functional.
Regarding `COCc1cnc(C2=NC(C)(C(C)C)C(=O)N2)c(C(=O)O)c1` (centres undefined) [IMAZAMOX], the Survival is on record as 0%.
The same measure, in the same setting: to `CCc1cc(C)cc(CC)c1-c1c(OC(=O)C(C)(C)C)n2n(c1=O)CCOCC2` [PINOXADEN] belongs 0%; to `CCO/N=C(\CC)C1=C(O)CC(c2c(C)cc(C)cc2C)CC1=O` (centres undefined) [TRALKOXYDIM], 0%.

A further assay has as its system Avena sterilis. The experiment in a line: Herbicidal activity against Avena sterilis accession P10S assessed as weed survival at 1/8 times field recommended herbicide dose. The class given is functional.
`COCc1cnc(C2=NC(C)(C(C)C)C(=O)N2)c(C(=O)O)c1` (centres undefined) [IMAZAMOX]: the Survival amounted to 60%.
On the same count and under the same terms, to `CCc1cc(C)cc(CC)c1-c1c(OC(=O)C(C)(C)C)n2n(c1=O)CCOCC2` [PINOXADEN] belongs 20%; to `CCO/N=C(\CC)C1=C(O)CC(c2c(C)cc(C)cc2C)CC1=O` (centres undefined) [TRALKOXYDIM], 30%.

A further assay has as its system Avena sterilis. The experiment in a line: Resistance index, ratio of GR50 for Avena sterilis accession P08 to GR50 for Avena sterilis accession P10S. Type of assay: functional.
For the molecule `CCO/N=C(\CC)C1=C(O)CC(c2c(C)cc(C)cc2C)CC1=O` (centres undefined) [TRALKOXYDIM], the Ratio was 27.

Another assay relates to Avena sterilis. In words: Resistance index, ratio of GR50 for Avena sterilis accession P01 to GR50 for Avena sterilis accession P10S. Type of assay: functional.
Regarding `CCO/N=C(\CC)C1=C(O)CC(c2c(C)cc(C)cc2C)CC1=O` (centres undefined) [TRALKOXYDIM], the Ratio stood at 27.
